Test results: US20130011473A1, “Preparation Method Of The Solid Formulation Of Clopidogrel Bisulfate” (priority 2010, published 2013)
Where a name gives a salt, the structure may show the parent alone. Read-outs that look alike come from different tables or passages of the source.

What was measured:
phosphodiesterase = details: cited from earlier work

COC(=O)[C@H](c1ccccc1Cl)N1CCc2sccc2C1 [Clopidgrel salt, methyl(+)-(S)-α(2-chlorophenyl)-6,7-dihydrothieno[3,2-c]pyridine-5(4H)-acetate sulfate (1:1)]
angle of repose (after being mixed with Colloidal Silicon Dioxide): 40
angle of repose (as is): greater than 45

COC(=O)[C@H](c1ccccc1Cl)N1CCc2sccc2C1 [Clopidogrel]
phosphodiesterase activity (phosphodiesterase): did not inhibit
